Article PMC8482806, “A Novel Blood-Brain Barrier-Permeable Chemotherapeutic Agent for the Treatment of Glioblastoma” (Cureus, 2021)

Test system: phosphorylation of H2AX in LN229 cells
Assay: Phosphorylation of γ-H2AX assay (immunoblot), LN229
Type: cell-based, human
Settings: LN229, 16 hours

## Cc1ccc(N(CCCl)CCCl)cc1C[C@H](N)CC(=O)O [QBS10072S, (+)-(3S)-amino-4-[5-[bis(2-chloroethyl)amino]-2-methyl-phenyl]butanoic acid]
  phosphorylation of H2AX: dose-dependent phosphorylation of H2AX
